Measured values published in patent US20230130134A1, “METHOD OF TREATING VIRAL INFECTIONS WITH HEXOSE TYPE MONOSACCHARIDES AND ANALOGS THEREOF” (Board of Regents, The University of Texas System, priority 2020, published 2023).

Assay: Tissue distribution of tritium-labeled WP1122 and 2-DG in lungs after intravenous administration (liquid scintillation counting)
Assay type: in vivo
Settings: male Sprague-Dawley rats; for Detection of 2-DG and metabolites in lungs: i.v., 15, 30, 60 min, 6 and 24 hours post-dose
Method: Experimental procedures. The pharmacokinetic and tissue organ distribution of WP1122 and 2-DG labeled with tritium was analyzed in male Sprague-Dawley rats. Animals (n=3 per timepoint) were dosed intravenously with 2-DG or WP1122 at equimolar dose 0.2 and 0.13 g/kg for WP1122 and 2-DG respectively. The animals were euthanized at 15, 30, 60 min and 6- and 24-hours post-dose. The organs were extracted, rinsed with PBS and radioactivity was measured using Liquid Scintillation Counting (LCS).

In the case of `CC(=O)OC[C@H]1OC(O)C[C@@H](OC(C)=O)[C@@H]1O` (stereo partly drawn) [WP1122, ((2R,3S,4R)-4-acetoxy-3,6-dihydroxytetrahydro-2H-pyran-2-yl)methyl acetate], the “Detection of 2-DG and metabolites in lungs” value is reported as “detected in lungs in all tested time-points”, the “Presence of metabolites in lungs compared with 2-DG administration” value (i.v., all time points including 24 hours after administration) is reported as “Increased presence of metabolites” and the “Highest concentration of radiolabeled compounds in lungs relative to radioactivity from 2-DG administration” value (i.v., equimolar 0.2 g/kg WP1122 vs 0.13 g/kg 2-DG, 15 min post injection) is reported as “nearly three times higher”.
In the case of `OC[C@H]1OC(O)C[C@@H](O)[C@@H]1O` (stereo partly drawn) [Example 2-DG, (4R,5S,6R)-6-(hydroxymethyl)tetrahydro-2H-pyran-2,4,5-triol, reference compound], the “Detection of 2-DG and metabolites in lungs” value is reported as “detected in lungs in all tested time-points”.
